Measured values reported in patent publication US6368788B1 (priority 1987, dated 2002).

Columns and labels:
Burns = assay: Burns; design: species or system human; conditions: in vivo
Procedure: A total of 23 patients with cutaneous burns were treated with L-Glu-L-Trp either im or intranasally. Fourteen patients in a control group were treated using conventional methods.

bone marrow cells = assay: Bone marrow and peripheral blood cells in 5-FU immunosuppressed mice; format: in vivo, CBA mice
Procedure: The effects of L-Glu-L-Trp on bone marrow hematopoietic activity was investigated in 5-fluorouracil (5-FU) immunosuppressed CBA mice. Mice were treated with a dose schedule of 5-FU determined empirically to be sufficient to decrease the absolute number of bone marrow cells and peripheral blood leukocytes by about 50% on day 10-14. Treatment with L-Glu-L-Trp was initiated on day 10, and 1 μg/kg was administered ip daily on that day and each of the following 4 days. Bone marrow and peripheral blood cell populations were quantified on day 15.

[1] = bone marrow, 5-FU + 1 μg/kg ip daily 5 days, day 15
[2] = peripheral blood, 5-FU + 1 μg/kg ip daily 5 days, day 15

With L-Glu-L-Trp the Clinical outcome (Burns) was “accelerated rate of wound healing”, the Bone marrow cells (bone marrow cells; 1 μg/kg ip, 5 days) was “an increase in the numbers of myelocytes/neutrophils, stab and segmented neutrophils, and megakaryocytes” and the “Eosinophils (% of Normal Control Value)” value (bone marrow cells; [1]) was “(64%)”. For the same substance, the “Eosinophils: %” value (bone marrow cells; [1]) was 1.1%, the “Eosinophils: Total Cells” value (bone marrow cells; [1]) was 15600 mg⁻¹ and the “Erythroblasts (% of Normal Control Value)” value (bone marrow cells; [1]) was “(64%)”. For the same substance, the “Erythroblasts: %” value (bone marrow cells; [1]) was 2.1%, the “Erythroblasts: Total Cells” value (bone marrow cells; [1]) was 29600 mg⁻¹ and the “Erythroid cells (% of Normal Control Value)” value (bone marrow cells; [1]) was “(59%)”. For the same substance, the “Erythroid cells: %” value (bone marrow cells; [1]) was 9.7%, the “Lymphocytes (% of Normal Control Value)” value (bone marrow cells; [1]) was “(88%)” and the “Lymphocytes: %” value (bone marrow cells; [1]) was 43.9%. The “Lymphocytes: Total Cells” value (bone marrow cells; [1]) was 618900 mg⁻¹, the “Megakaryocytes (% of Normal Control Value)” value (bone marrow cells; [1]) was “(43%)” and the “Megakaryocytes: %” value (bone marrow cells; [1]) was 0.3%. For the same substance, the “Megakaryocytes: Total Cells” value (bone marrow cells; [1]) was 4200 mg⁻¹, the “Monocytes (% of Normal Control Value)” value (bone marrow cells; [1]) was “(60%)” and the “Monocytes: %” value (bone marrow cells; [1]) was 2.5%. The “Monocytes: Total Cells” value (bone marrow cells; [1]) was 35300 mg⁻¹, the “Myeloblasts (% of Normal Control Value)” value (bone marrow cells; [1]) was “(74%)” and the “Myeloblasts: %” value (bone marrow cells; [1]) was 5.0%. The “Myeloblasts: Total Cells” value (bone marrow cells; [1]) was 70600 mg⁻¹, the “Myelocytes + Neutrophil Metamyelocytes (% of Normal Control Value)” value (bone marrow cells; [1]) was “(40%)” and the “Myelocytes + Neutrophil Metamyelocytes: %” value (bone marrow cells; [1]) was 4.0%. The “Myelocytes + Neutrophil Metamyelocytes: Total Cells” value (bone marrow cells; [1]) was 56400 mg⁻¹, the “Myelokaryocytes (% of Normal Control Value)” value (bone marrow cells; [1]) was “(58%)” and the “Myelokaryocytes: Total Cells” value (bone marrow cells; [1]) was 1.41e+06 mg⁻¹. The “Non-differentiated blast cells (% of Normal Control Value)” value (bone marrow cells; [1]) was “(64%)”, the “Non-differentiated blast cells: %” value (bone marrow cells; [1]) was 2.2% and the “Non-differentiated blast cells: Total Cells” value (bone marrow cells; [1]) was 31000 mg⁻¹. The “Promyeloblasts (% of Normal Control Value)” value (bone marrow cells; [1]) was “(74%)”, the “Promyeloblasts: %” value (bone marrow cells; [1]) was 3.6% and the “Promyeloblasts: Total Cells” value (bone marrow cells; [1]) was 50800 mg⁻¹. The “Reticular cells (% of Normal Control Value)” value (bone marrow cells; [1]) was “(50%)”, the “Reticular cells: %” value (bone marrow cells; [1]) was 0.7% and the “Reticular cells: Total Cells” value (bone marrow cells; [1]) was 9800 mg⁻¹. The “Stab + Seg. neutrophils (% of Normal Control Value)” value (bone marrow cells; [1]) was “(34%)”, the “Stab + Seg. neutrophils: %” value (bone marrow cells; [1]) was 24.9% and the “Stab + Seg. neutrophils: Total Cells” value (bone marrow cells; [1]) was 351000 mg⁻¹. The “Blast Cells: %” value (bone marrow cells; [2]) was 0.3%, the “Blast Cells: Total Cells” value (bone marrow cells; [2]) was 1e+07 L⁻¹ and the “Eosinophils (% of Normal Control Value)” value (bone marrow cells; [2]) was “(100%)”. For the same substance, the “Eosinophils: %” value (bone marrow cells; [2]) was 0.3%, the “Eosinophils: Total Cells” value (bone marrow cells; [2]) was 1e+07 L⁻¹ and the “Lymphocytes (% of Normal Control Value)” value (bone marrow cells; [2]) was “(93%)”. The “Lymphocytes: %” value (bone marrow cells; [2]) was 41.9%, the “Lymphocytes: Total Cells” value (bone marrow cells; [2]) was 2.52e+09 L⁻¹ and the “Monocytes (% of Normal Control Value)” value (bone marrow cells; [2]) was “(18%)”. The “Monocytes: %” value (bone marrow cells; [2]) was 2.5%, the “Monocytes: Total Cells” value (bone marrow cells; [2]) was 2e+07 L⁻¹ and the “Peripheral Blood Leukocytes (% of Normal Control Value)” value (bone marrow cells; [2]) was “(52%)”. The “Peripheral Blood Leukocytes: Total Cells” value (bone marrow cells; [2]) was 2.98e+09 L⁻¹, the “Segmented Neutrophils (% of Normal Control Value)” value (bone marrow cells; [2]) was “(22%)” and the “Segmented Neutrophils: %” value (bone marrow cells; [2]) was 14.6%. The “Segmented Neutrophils: Total Cells” value (bone marrow cells; [2]) was 4.3e+08 L⁻¹, the “Stab. Neutrophils (% of Normal Control Value)” value (bone marrow cells; [2]) was “(26%)” and the “Stab. Neutrophils: %” value (bone marrow cells; [2]) was 7.9%. For the same substance, the “Stab. Neutrophils: Total Cells” value (bone marrow cells; [2]) was 2.4e+08 L⁻¹.
